Measured values from ChEMBL document CHEMBL1132054, “Synthesis and properties of 2-(naphthosultamyl)methyl-carbapenems with potent anti-MRSA activity: discovery of L-786,392” (Bioorg Med Chem Lett, 1999).
Values after ≈ are worked out from the molar mass of the structure shown.

Assays:
[1] = molecular target: T1, Dipeptidase 1 (Sus scrofa) (UniProt P22412); experiment: Susceptibility to hog kidney dehydropeptidase-I.; assay type: functional, tissue-based; parameters: reference not given here
T1 sequence (whole entry): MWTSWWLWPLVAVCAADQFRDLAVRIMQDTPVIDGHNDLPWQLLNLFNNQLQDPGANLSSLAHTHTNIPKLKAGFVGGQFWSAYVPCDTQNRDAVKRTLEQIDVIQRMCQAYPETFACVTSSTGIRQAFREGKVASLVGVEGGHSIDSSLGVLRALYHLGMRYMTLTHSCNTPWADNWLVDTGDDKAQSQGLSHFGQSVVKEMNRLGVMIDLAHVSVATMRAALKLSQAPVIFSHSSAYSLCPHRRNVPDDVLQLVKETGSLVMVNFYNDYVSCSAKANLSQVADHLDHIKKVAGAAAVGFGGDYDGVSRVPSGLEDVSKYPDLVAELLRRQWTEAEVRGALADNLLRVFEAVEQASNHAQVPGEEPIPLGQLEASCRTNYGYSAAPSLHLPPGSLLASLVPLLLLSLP

[2] = test system: Enterococcus faecium; experiment: In vitro antibacterial activity against MDREFm.; assay type: functional
[3] = test system: Enterococcus faecalis; experiment: In vitro antibacterial activity against VREFs.; assay type: functional
[4] = organism: Mus musculus; experiment: Dose showing no visible effects (ataxia, somnolence) in two mice; assay type: functional
[5] = test system: Staphylococcus sp.; experiment: In vitro antibacterial activity against MRCNS.; assay type: functional
[6] = test system: Streptococcus pneumoniae; experiment: In vitro antibacterial activity against PRSP.; assay type: functional
[7] = test system: Staphylococcus aureus; experiment: In vitro antibacterial activity against MRSA.; assay type: functional
[8] = Lethal dose defined as as the lowest dose resulting in the death of a single mouse; assay type: toxicity; conditions: in vivo
[9] = test system: Staphylococcus aureus; experiment: Effect of 43 mg/mL of Human Serum Albumin, Fraction V (HSA Fr. V) on antimicrobial activity was assessed against MSSA strain MB 2985; assay type: functional
[10] = test system: Staphylococcus aureus; experiment: Antibacterial activity against Methicillin sensitive Staphylococcus aureus-/+ HSA Fr. V; assay type: functional
[11] = test system: Staphylococcus aureus; experiment: Antibacterial activity against Methicillin sensitive Staphylococcus aureus; assay type: functional

C[C@@H](O)[C@H]1C(=O)N2C(C(=O)O)=C(CN3c4cccc5cc(CC[N+]67CC[N+](CC(=O)Nc8ccccc8)(CC6)CC7)cc(c45)S3(=O)=O)[C@H](C)[C@H]12.[Cl-].[Cl-]
Activity [1]: 0.64 | MIC [2]: 3.2 µg/mL | MIC [3]: 8 µg/mL | NOEL [4]: <61 mg/kg | MIC [5]: 0.3 µg/mL | MIC [6]: 0.17 µg/mL | MIC [7]: 0.2 µg/mL | Lethal dose [8]: 245 mg/kg

C[C@@H](O)[C@H]1C(=O)N2C(C(=O)O)=C(SCCNC=N)C[C@H]12 [IMIPENEM ANHYDROUS]
Activity [1]: 1 | MIC [2]: > 64 µg/mL | MIC [3]: 8 µg/mL (≈ 26.7 µM) | MIC [5]: > 64 µg/mL | MIC [6]: 0.25 µg/mL (≈ 0.835 µM) | MIC [9]: 0.016 µg/mL (≈ 0.0534 µM) | MIC [10]: 0.016 µg/mL (≈ 0.0534 µM) | MIC [7]: > 40 µg/mL

C[C@@H](O)[C@H]1C(=O)N2C(C(=O)O)=C(CN3c4cccc5c(CC[N+]67CC[N+](CCCO)(CC6)CC7)ccc(c45)S3(=O)=O)[C@H](C)[C@H]12.[Cl-].[Cl-]
Activity [1]: 1.9 | MIC [2]: 6.4 µg/mL | MIC [3]: 16 µg/mL | NOEL [4]: 250 mg/kg | MIC [5]: 0.9 µg/mL | MIC [6]: 0.5 µg/mL | MIC [7]: 0.6 µg/mL | Lethal dose [8]: > 500 mg/kg

C[C@@H](O)[C@H]1C(=O)N2C(C(=O)O)=C(CN3c4cccc5cc(CC[N+]67CC[N+](CCCO)(CC6)CC7)cc(c45)S3(=O)=O)[C@H](C)[C@H]12.[Cl-].[Cl-]
Activity [1]: 0.85 | MIC [2]: 4 µg/mL | MIC [3]: 8 µg/mL | MIC [5]: 1.5 µg/mL | MIC [6]: 0.17 µg/mL | MIC [7]: 1.1 µg/mL

C[C@@H](O)[C@H]1C(=O)N2C(C(=O)O)=C(CN3c4ccc(CC[N+]56CC[N+](CC(N)=O)(CC5)CC6)c5cccc(c45)S3(=O)=O)[C@H](C)[C@H]12.[Cl-].[Cl-]
Activity [1]: 0.74 | MIC [2]: 16 µg/mL | MIC [3]: 32 µg/mL | MIC [5]: 12.1 µg/mL | MIC [6]: 1 µg/mL | MIC [9]: 0.062 µg/mL | MIC [10]: 0.062 µg/mL | MIC [7]: 8 µg/mL

CN[C@H](CC(C)C)C(=O)N[C@H]1C(=O)N[C@@H](CC(N)=O)C(=O)N[C@H]2C(=O)N[C@H]3C(=O)N[C@H](C(=O)N[C@H](C(=O)O)c4cc(O)cc(O)c4-c4cc3ccc4O)[C@H](O)c3ccc(c(Cl)c3)Oc3cc2cc(c3O[C@@H]2O[C@H](CO)[C@@H](O)[C@H](O)[C@H]2O[C@H]2C[C@](C)(N)[C@H](O)[C@H](C)O2)Oc2ccc(cc2Cl)[C@H]1O [VANCOMYCIN]
MIC [2]: 20.2 µg/mL (≈ 13.9 µM) | MIC [3]: > 64 µg/mL | MIC [5]: 1.7 µg/mL (≈ 1.17 µM) | MIC [6]: 0.35 µg/mL (≈ 0.242 µM) | MIC [7]: 0.9 µg/mL (≈ 0.621 µM)

C[C@@H](O)[C@H]1C(=O)N2C(C(=O)O)=C(CN3c4cccc5ccc(C[N+]67CC[N+](CC(N)=O)(CC6)CC7)c(c45)S3(=O)=O)[C@H](C)[C@H]12.[Cl-].[Cl-]
Activity [1]: 0.01 | MIC [2]: 20.2 µg/mL | MIC [3]: 16 µg/mL | MIC [5]: 4 µg/mL | MIC [6]: 0.71 µg/mL | MIC [9]: 0.031 µg/mL | MIC [7]: 2.5 µg/mL | MIC [11]: 0.016 µg/mL

C[C@@H](O)[C@H]1C(=O)N2C(C(=O)O)=C(CN3c4cccc5cc(CCC[N+]67CC[N+](CC(N)=O)(CC6)CC7)cc(c45)S3(=O)=O)[C@H](C)[C@H]12.[Cl-].[Cl-]
Activity [1]: 1.25 | MIC [2]: 6.4 µg/mL | MIC [3]: 16 µg/mL | MIC [5]: 4 µg/mL | MIC [6]: 0.5 µg/mL | MIC [9]: 0.031 µg/mL | MIC [10]: 0.016 µg/mL | MIC [7]: 2.2 µg/mL

C[C@@H](O)[C@H]1C(=O)N2C(C(=O)O)=C(CN3c4cccc5c(CC[N+]67CC[N+](CC(=O)Nc8ccccc8)(CC6)CC7)ccc(c45)S3(=O)=O)[C@H](C)[C@H]12.[Cl-].[Cl-]
Activity [1]: 1.4 | MIC [2]: 4 µg/mL | MIC [3]: 4 µg/mL | NOEL [4]: 31 mg/kg | MIC [5]: 1.5 µg/mL | MIC [6]: 0.12 µg/mL | MIC [7]: 0.8 µg/mL | Lethal dose [8]: 63 mg/kg

C[C@@H](O)[C@H]1C(=O)N2C(C(=O)O)=C(CN3c4cccc5cc(C[N+]67CC[N+](CC(N)=O)(CC6)CC7)cc(c45)S3(=O)=O)[C@H](C)[C@H]12.[Cl-].[Cl-]
Activity [1]: 0.21 | MIC [2]: 8 µg/mL | MIC [3]: 16 µg/mL | MIC [5]: 3 µg/mL | MIC [6]: 0.5 µg/mL | MIC [9]: 0.031 µg/mL | MIC [10]: 0.016 µg/mL | MIC [7]: 2 µg/mL

C[C@@H](O)[C@H]1C(=O)N2C(C(=O)O)=C(CN3c4cccc5c(C[N+]67CC[N+](CC(N)=O)(CC6)CC7)ccc(c45)S3(=O)=O)[C@H](C)[C@H]12.[Cl-].[Cl-]
Activity [1]: 0.74 | MIC [2]: 8 µg/mL | MIC [3]: 16 µg/mL | NOEL [4]: 250 mg/kg | MIC [5]: 1.5 µg/mL | MIC [6]: 0.5 µg/mL | MIC [9]: 0.031 µg/mL | MIC [10]: 0.031 µg/mL | MIC [7]: 1 µg/mL | Lethal dose [8]: 500 mg/kg

CCC[N+]12CC[N+](CCc3ccc4c5c(cccc35)N(CC3=C(C(=O)O)N5C(=O)[C@H]([C@@H](C)O)[C@H]5[C@H]3C)S4(=O)=O)(CC1)CC2.[Cl-].[Cl-]
Activity [1]: 1.93 | MIC [2]: 6.4 µg/mL | MIC [3]: 16 µg/mL | MIC [5]: 4 µg/mL | MIC [6]: 0.25 µg/mL | MIC [7]: 2.2 µg/mL

C[C@@H](O)[C@H]1C(=O)N2C(C(=O)O)=C(CN3c4c(CC[N+]56CC[N+](CC(N)=O)(CC5)CC6)ccc5cccc(c45)S3(=O)=O)[C@H](C)[C@H]12.[Cl-].[Cl-]
MIC [2]: > 64 µg/mL | MIC [3]: > 64 µg/mL | MIC [5]: > 64 µg/mL | MIC [6]: > 64 µg/mL | MIC [9]: 64 µg/mL | MIC [10]: 32 µg/mL | MIC [7]: > 64 µg/mL

C[C@@H](O)[C@H]1C(=O)N2C(C(=O)O)=C(CN3c4cccc5c(CCC[N+]67CC[N+](CC(N)=O)(CC6)CC7)ccc(c45)S3(=O)=O)[C@H](C)[C@H]12.[Cl-].[Cl-]
Activity [1]: 2.64 | MIC [2]: 4 µg/mL | MIC [3]: 8 µg/mL | NOEL [4]: 125 mg/kg | MIC [5]: 3.5 µg/mL | MIC [6]: 0.25 µg/mL | MIC [9]: 0.031 µg/mL | MIC [10]: 0.016 µg/mL | MIC [7]: 2 µg/mL | Lethal dose [8]: 500 mg/kg

C[C@@H](O)[C@H]1C(=O)N2C(C(=O)O)=C(CN3c4cccc5cc(CC[N+]67CC[N+](CC(N)=O)(CC6)CC7)cc(c45)S3(=O)=O)[C@H](C)[C@H]12.[Cl-].[Cl-]
Activity [1]: 0.75 | MIC [2]: 3.2 µg/mL | MIC [3]: 8 µg/mL | NOEL [4]: 125 mg/kg | MIC [5]: 0.6 µg/mL | MIC [6]: 0.17 µg/mL | MIC [9]: 0.016 µg/mL | MIC [10]: 0.016 µg/mL | MIC [7]: 0.5 µg/mL | Lethal dose [8]: 500 mg/kg

C[C@@H](O)[C@H]1C(=O)N2C(C(=O)[O-])=C(CN3c4cccc5cccc(c45)S3(=O)=O)[C@H](C)[C@H]12.[Na+]
Activity [1]: 0.99 | MIC [2]: 25.4 µg/mL | MIC [3]: 8 µg/mL | MIC [5]: 3.5 µg/mL | MIC [6]: 0.25 µg/mL | MIC [9]: 0.25 µg/mL | MIC [7]: 0.7 µg/mL | MIC [11]: 0.016 µg/mL

C[C@@H](O)[C@H]1C(=O)N2C(C(=O)O)=C(CN3c4ccc(C[N+]56CC[N+](CC(N)=O)(CC5)CC6)c5cccc(c45)S3(=O)=O)[C@H](C)[C@H]12.[Cl-].[Cl-]
Activity [1]: 0.81 | MIC [2]: 32 µg/mL | MIC [3]: 32 µg/mL | MIC [5]: 12.1 µg/mL | MIC [6]: 1 µg/mL | MIC [9]: 0.125 µg/mL | MIC [10]: 0.031 µg/mL | MIC [7]: 4.2 µg/mL

CCC[N+]12CC[N+](CCc3cc4c5c(cccc5c3)N(CC3=C(C(=O)O)N5C(=O)[C@H]([C@@H](C)O)[C@H]5[C@H]3C)S4(=O)=O)(CC1)CC2.[Cl-].[Cl-]
MIC [2]: 3.2 µg/mL | MIC [3]: 8 µg/mL | MIC [5]: 1.5 µg/mL | MIC [6]: 0.24 µg/mL | MIC [7]: 1 µg/mL
